Test results published in PMC6445168, “Design, synthesis and antimalarial activity of novel bis{N-[(pyrrolo[1,2-a]quinoxalin-4-yl)benzyl]-3-aminopropyl}amine derivatives” (Journal of Enzyme Inhibition and Medicinal Chemistry, 2017).
Structures can show the parent of a compound that is named as a salt. Where two headings read alike, the source gives them in different places. Values belong to the compound of their own block, whether it stands above or below them.

Assays:
[1] = tested on: P. falciparum CQ-resistant strain W2; assay: In vitro antiplasmodial activity, SYBR Green I fluorescence-based method, W2 strain; assay type: cell-based, Plasmodium falciparum; details: for IC50: Plasmodium falciparum, chloroquine-resistant strain W2, 48 h incubation, read-out: P. falciparum strains IC50 values, W2; for Selectivity Index HepG2/W2: ratio CC50 HepG2 / IC50 W2
Protocol: (§1) The in vitro antiplasmodial activities were tested over concentrations ranging from 39 nM to 40 μM against culture-adapted Plasmodium falciparum reference strains 3D7 and W2. […] The parasites were cultivated in RPMI medium (Sigma-Aldrich, Lyon, France) supplemented with 0.5% Albumax I (Life Technologies corporation, Paisley, United Kingdom), hypoxanthine (Sigma-Aldrich), gentamicin (Sigma-Aldrich), and human erythrocytes and were incubated at 37 °C in a candle jar, as described previously. The P. falciparum drug susceptibility test was carried out in 96-well flat bottom sterile plates under a final volume of 250 μL. After a 48 h incubation with the drugs, quantities of DNA in treated and control cultures of parasites in human erythrocytes were compared according to the SYBR Green I (Sigma-Aldrich) fluorescence-based method[38]^,[39]. Briefly, after incubation, plates were frozen at -20 °C until use. They were then left to thaw for 2 h at room temperature and 100 μL of the homogenized culture were transferred to 96-well flat bottom sterile black plates (Nunc Inc) already containing 100 μL of the SYBR Green I lysis buffer (2xSYBR Green, 20 mM Tris base pH 7.5, 5 mM EDTA, 0.008% w/v saponin, 0.08% w/v Triton X-100). […] Plates were incubated for 1 h at room temperature and then read on a fluorescence plate reader (Tecan, Austria) using excitation and emission wavelengths of 485 and 535 nm, respectively.

[2] = tested on: P. falciparum CQ-sensitive strain 3D7; assay: In vitro antiplasmodial activity, SYBR Green I fluorescence-based method, 3D7 strain; assay type: cell-based, Plasmodium falciparum; details: for IC50: chloroquine-sensitive strain 3D7, 48 h incubation, read-out: P. falciparum strains IC50 values, 3D7; for Selectivity Index HepG2/3D7: ratio CC50 HepG2 / IC50 3D7
Protocol: as §1

[3] = Cytotoxicity evaluation, MTT assay; assay type: cell-based, human; details: human, HepG2 cells (hepatocarcinoma cell line, ATCC HB-8065); HepG2, 72 h incubation, mean ± SD of three independent experiments
Protocol: These assays were performed toward the human HepG2 cell line (HepG2 CC50). […] These cells express many of the hepatocyte-specific metabolic enzymes, thus enabling the cytotoxicity of tested product metabolites to be evaluated. […] Duplicate assays were performed for each sample. Each plate-well was then microscope-examined for detecting possible precipitate formation before the medium was aspirated from the wells. 100 μL of MTT solution (0.5 mg/mL in medium without FCS) were then added to each well. […] After this time, the MTT solution was removed and DMSO (100 μL) was added to dissolve the resulting blue formazan crystals. Plates were shaken vigorously (300 rpm) for 5 minutes. The absorbance was measured at 570 nm with 630 nm as reference wavelength spectrophotometer using a BIO-TEK ELx808 Absorbance Microplate Reader. DMSO was used as blank and doxorubicin (Sigma Aldrich) as positive control. Cell viability was calculated as percentage of control (cells incubated without compound). The 50% cytotoxic concentration was determined from the dose-response curve by using the TableCurve 2D V5.0 software (Systat Software, San Jose, CA).

[4] = tested on: L. donovani (MHOM/IN/00/DEVI) promastigotes; assay: In vitro antileishmanial activity on promastigotes, MTT assay; assay type: cell-based; details: Leishmania donovani, 72 h incubation, mean ± SD of three independent experiments
Protocol: L. donovani (MHOM/IN/00/DEVI) used in this study was provided by the CNR Leishmania (Montpellier, France). The effects of the tested compounds on the growth of L. donovani (MHOM/IN/00/DEVI)promastigotes were assessed by MTT assay[41] .Briefly, promastigotes in log-phase in Schneider′s medium supplemented with 20% fetal calf serum (FCS), 2 mM L-glutamine and antibiotics (100 U/mL penicillin and 100 μg/mL streptomycin), were incubated at an average density of 10^6 parasites/mL in sterile 96-well plates with various concentrations of compounds dissolved in DMSO (final concentration less than 0.5% v/v), in duplicate. Appropriate controls treated by DMSO and pentamidine or amphotericin B (reference drugs purchased from Sigma-Aldrich) were added to each set of experiments. After a 72 h incubation period at 27 °C, parasite metabolic activity was determined. Each plate-well was then microscope-examined for detecting possible precipitate formation. 20 μL of MTT 3–(4,5-dimethylthiazol-2-yl)-2,5-diphenyltetrazolium bromide) solution (5 mg/mL) were added to each well followed by incubation for another 4 h. The enzyme reaction was then stopped by addition of 100 μL of 50% isopropanol – 10% sodium dodecyl sulfate[42] .Plates were shaken vigorously (300 rpm) for 10 minutes and the absorbance measured in a plate reader at 570 nm in a BIO-TEK ELx808 Absorbance Microplate Reader. […] IC50 were calculated by non-linear regression analysis processed on doseresponse curves, using TableCurve 2D V5.0 software. IC50 values represent the mean value calculated from three independent experiments.

[5] = Plasmodium falciparum, 3D7, 48 h

Compound: c1ccc2c(c1)nc(-c1ccc(CNCCCNCCCNCc3ccc(-c4nc5ccccc5n5cccc45)cc3)cc1)c1cccn12 (as salt: ammonium) [1a, Bis{N-[4-(pyrrolo[1,2-a]quinoxalin-4-yl)benzyl]-3-aminopropyl}amine]
melting point: > 260 °C

Compound: CN(CCCNCc1ccc(-c2nc3ccccc3n3cccc23)cc1)CCCNCc1ccc(-c2nc3ccccc3n3cccc23)cc1 (as salt: ammonium) [1b, Bis{N-[4-(pyrrolo[1,2-a]quinoxalin-4-yl)benzyl]-3-aminopropyl}methylamine]
melting point: 245 to 248 °C

Compound: c1ccc2c(c1)nc(-c1ccc(CNCCCN3CCN(CCCNCc4ccc(-c5nc6ccccc6n6cccc56)cc4)CC3)cc1)c1cccn12 (as salt: ammonium) [1c, Bis{N-[4-(pyrrolo[1,2-a]quinoxalin-4-yl)benzyl]-3-aminopropyl}piperazine]
melting point: > 260 °C

Compound: COc1ccc2nc(-c3ccc(CNCCCN(C)CCCNCc4ccc(-c5nc6ccc(OC)cc6n6cccc56)cc4)cc3)c3cccn3c2c1 (as salt: ammonium) [1f, Bis{N-[4–(8-methoxypyrrolo[1,2-a]quinoxalin-4-yl)benzyl]-3-aminopropyl}methylamine]
melting point: 240 to 242 °C

Compound: COc1ccc2nc(-c3ccc(CNCCCN4CCN(CCCNCc5ccc(-c6nc7ccc(OC)cc7n7cccc67)cc5)CC4)cc3)c3cccn3c2c1 (as salt: ammonium) [1g, Bis{N-[4–(8-methoxypyrrolo[1,2-a]quinoxalin-4-yl)benzyl]-3-aminopropyl}piperazine]
melting point: 236 to 239 °C

The next lines start with results.

melting point: 160 to 162 °C
Compound: COc1cccc2nc(-c3ccc(CNCCCN(C)CCCNCc4ccc(-c5nc6cccc(OC)c6n6cccc56)cc4)cc3)c3cccn3c12 (as salt: ammonium) [1h, Bis{N-[4–(9-methoxypyrrolo[1,2-a]quinoxalin-4-yl)benzyl]-3-aminopropyl}methylamine]

melting point: 192 to 195 °C
Compound: CCOc1ccn2c1c(-c1ccc(CNCCCN(C)CCCNCc3ccc(-c4nc5ccccc5n5ccc(OCC)c45)cc3)cc1)nc1ccccc12 (as salt: ammonium) [1j, Bis{N-[4–(3-ethoxypyrrolo[1,2-a]quinoxalin-4-yl)benzyl]-3-aminopropyl}methylamine]

melting point: 218 to 220 °C
Compound: CCOc1ccn2c1c(-c1ccc(CNCCCN3CCN(CCCNCc4ccc(-c5nc6ccccc6n6ccc(OCC)c56)cc4)CC3)cc1)nc1ccccc12 (as salt: ammonium) [1k, Bis{N-[4–(3-ethoxypyrrolo[1,2-a]quinoxalin-4-yl)benzyl]-3-aminopropyl}piperazine]

IC50 [1]: 290 ± 50 nM | IC50 [2, 5]: 200 ± 40 nM | IC50 [4]: ≥ 10000 nM
Compound: COc1ccc2c(c1)nc(-c1ccc(CNCCCN(CCCNCc3ccc(-c4nc5cc(OC)ccc5n5cccc45)cc3)CCCNCc3ccc(-c4nc5cc(OC)ccc5n5cccc45)cc3)cc1)c1cccn12 [1s, Tris{N-[4–(7-methoxypyrrolo[1,2-a]quinoxalin-4-yl)benzyl]-3-aminopropyl}amine]
Selectivity Index HepG2/W2 [1]: 5.72 | Selectivity Index HepG2/3D7 [2]: 8.30 | CC50 at 72 h [3]: 1660 ± 500 nM

IC50 [1]: 190 ± 20 nM | IC50 [2, 5]: 240 ± 30 nM | IC50 [4]: ≥ 10000 nM
Compound: COc1ccc2nc(-c3cccc(CNCCCN(CCCNCc4cccc(-c5nc6ccc(OC)cc6n6cccc56)c4)CCCNCc4cccc(-c5nc6ccc(OC)cc6n6cccc56)c4)c3)c3cccn3c2c1 [1t, Tris{N-[3–(8-methoxypyrrolo[1,2-a]quinoxalin-4-yl)benzyl]-3-aminopropyl}amine]
Selectivity Index HepG2/W2 [1]: 9.05 | Selectivity Index HepG2/3D7 [2]: 7.17 | CC50 at 72 h [3]: 1720 ± 600 nM

IC50 [1]: 250 ± 80 nM | IC50 [2, 5]: ~80 nM | IC50 [2]: 76 ± 9 nM | IC50 [4]: ≥ 10000 nM
Compound: COc1ccc2nc(-c3cccc(CNCCOCCOCCOCCNCc4cccc(-c5nc6ccc(OC)cc6n6cccc56)c4)c3)c3cccn3c2c1 [1u, N,N′-[oxybis(2,1-ethanediyloxy-2,1-ethanediyl)]bis-3–(8-methoxypyrrolo[1,2-a]quinoxalin-4-yl)benzylamine]
Selectivity Index HepG2/W2 [1]: 6.16 | Selectivity Index HepG2/3D7 [2]: 20.26 | CC50 at 72 h [3]: 1540 ± 700 nM
